Measurements: PubChem BioAssay (NCI)
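A five-concentration, 48-hour dose response in 96-well plates underlies each endpoint, interpolated linearly between surrounding concentrations. At the GI50, growth is halved. TGI is the concentration that stops growth completely.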

Tests used:
Experiment in all cases: NCI tumour cell line growth inhibition, 48 h
786-0 renal = test system: 786-0 renal
A498 renal = test system: A498 renal
A549 NSCLC = test system: A549 NSCLC
ACHN renal = test system: ACHN renal
BT-549 breast = test system: BT-549 breast
CAKI-1 renal = test system: CAKI-1 renal
CCRF-CEM leukemia = test system: CCRF-CEM leukemia
COLO 205 colon = test system: COLO 205 colon
DU-145 prostate = test system: DU-145 prostate
EKVX NSCLC = test system: EKVX NSCLC
HCC-2998 colon = test system: HCC-2998 colon
HCT-116 colon = test system: HCT-116 colon
HCT-15 colon = test system: HCT-15 colon
HL-60(TB) leukemia = test system: HL-60(TB) leukemia
HOP-62 NSCLC = test system: HOP-62 NSCLC
HOP-92 NSCLC = test system: HOP-92 NSCLC
HS 578T breast = test system: HS 578T breast
HT29 colon = test system: HT29 colon
IGROV1 ovarian = test system: IGROV1 ovarian
K-562 leukemia = test system: K-562 leukemia
KM12 colon = test system: KM12 colon
LOX IMVI melanoma = test system: LOX IMVI melanoma
M14 melanoma = test system: M14 melanoma
MALME-3M melanoma = test system: MALME-3M melanoma
MCF7 breast = test system: MCF7 breast
MDA-MB-231 breast = test system: MDA-MB-231 breast
MDA-MB-435 = test system: MDA-MB-435
MDA-MB-468 breast = test system: MDA-MB-468 breast
MOLT-4 leukemia = test system: MOLT-4 leukemia
NCI-H226 lung = test system: NCI-H226 lung
NCI-H23 lung = test system: NCI-H23 lung
NCI-H460 lung = test system: NCI-H460 lung
NCI-H522 lung = test system: NCI-H522 lung
NCI/ADR-RES ovarian = test system: NCI/ADR-RES ovarian
OVCAR-3 ovarian = test system: OVCAR-3 ovarian
OVCAR-4 ovarian = test system: OVCAR-4 ovarian
OVCAR-5 ovarian = test system: OVCAR-5 ovarian
OVCAR-8 ovarian = test system: OVCAR-8 ovarian
PC-3 prostate = test system: PC-3 prostate
RPMI-8226 leukemia = test system: RPMI-8226 leukemia
RXF 393 renal = test system: RXF 393 renal
SF-268 CNS = test system: SF-268 CNS
SF-295 CNS = test system: SF-295 CNS
SF-539 CNS = test system: SF-539 CNS
SK-MEL-2 melanoma = test system: SK-MEL-2 melanoma
SK-MEL-28 melanoma = test system: SK-MEL-28 melanoma
SK-MEL-5 melanoma = test system: SK-MEL-5 melanoma
SK-OV-3 ovarian = test system: SK-OV-3 ovarian
SN12C renal = test system: SN12C renal
SNB-19 CNS = test system: SNB-19 CNS
SNB-75 CNS = test system: SNB-75 CNS
SR leukemia = test system: SR leukemia
SW-620 colon = test system: SW-620 colon
TK-10 renal = test system: TK-10 renal
U251 CNS = test system: U251 CNS
UACC-257 melanoma = test system: UACC-257 melanoma
UACC-62 melanoma = test system: UACC-62 melanoma
UO-31 renal = test system: UO-31 renal

SMILES: Oc1ccc(F)c(Nc2nc(SCCN3CCOCC3)nc3c2cnn3CC(Cl)c2ccc(Br)cc2)c1 (stereo unspecified)
- GI50 (786-0 renal): 5.02 µM
- TGI (786-0 renal): 75.2 µM
- GI50 (A498 renal): 14.5 µM
- TGI (A498 renal): 45 µM
- GI50 (A549 NSCLC): 4.06 µM
- TGI (A549 NSCLC): > 100 µM
- GI50 (ACHN renal): 3.48 µM
- TGI (ACHN renal): 45.1 µM
- GI50 (BT-549 breast): 7.46 µM
- TGI (BT-549 breast): 22.7 µM
- GI50 (CAKI-1 renal): 9.49 µM
- TGI (CAKI-1 renal): > 100 µM
- GI50 (CCRF-CEM leukemia): 3.67 µM
- TGI (CCRF-CEM leukemia): 54 µM
- GI50 (COLO 205 colon): 17 µM
- TGI (COLO 205 colon): 34.7 µM
- GI50 (DU-145 prostate): 8.03 µM
- TGI (DU-145 prostate): > 100 µM
- GI50 (EKVX NSCLC): 4.44 µM
- TGI (EKVX NSCLC): > 100 µM
- GI50 (HCC-2998 colon): 3.64 µM
- TGI (HCC-2998 colon): 15.4 µM
- GI50 (HCT-116 colon): 3.29 µM
- TGI (HCT-116 colon): 16.2 µM
- GI50 (HCT-15 colon): 2.72 µM
- TGI (HCT-15 colon): 20.5 µM
- GI50 (HL-60(TB) leukemia): 3.42 µM
- TGI (HL-60(TB) leukemia): 33.6 µM
- GI50 (HOP-62 NSCLC): 5.08 µM
- TGI (HOP-62 NSCLC): 39 µM
- GI50 (HOP-92 NSCLC): 4.53 µM
- TGI (HOP-92 NSCLC): > 100 µM
- GI50 (HS 578T breast): 2 µM
- TGI (HS 578T breast): 8.19 µM
- GI50 (HT29 colon): 3.33 µM
- TGI (HT29 colon): 12.8 µM
- GI50 (IGROV1 ovarian): 3.7 µM
- TGI (IGROV1 ovarian): 22.7 µM
- GI50 (K-562 leukemia): 1.69 µM
- TGI (K-562 leukemia): 14.5 µM
- GI50 (KM12 colon): 5.22 µM
- TGI (KM12 colon): > 100 µM
- GI50 (LOX IMVI melanoma): 2.56 µM
- TGI (LOX IMVI melanoma): 10.5 µM
- GI50 (M14 melanoma): 4.18 µM
- TGI (M14 melanoma): 16.4 µM
- GI50 (MALME-3M melanoma): 2.86 µM
- TGI (MALME-3M melanoma): 11.5 µM
- GI50 (MCF7 breast): 2.87 µM
- TGI (MCF7 breast): 40.2 µM
- GI50 (MDA-MB-231 breast): 2.8 µM
- TGI (MDA-MB-231 breast): 9.68 µM
- GI50 (MDA-MB-435): 6.74 µM
- TGI (MDA-MB-435): 24.3 µM
- GI50 (MDA-MB-468 breast): 2.44 µM
- TGI (MDA-MB-468 breast): 9.54 µM
- GI50 (MOLT-4 leukemia): 2.83 µM
- TGI (MOLT-4 leukemia): 14.6 µM
- GI50 (NCI-H226 lung): 3.82 µM
- TGI (NCI-H226 lung): 43.7 µM
- GI50 (NCI-H23 lung): 4.74 µM
- TGI (NCI-H23 lung): 18.1 µM
- GI50 (NCI-H460 lung): 4.38 µM
- TGI (NCI-H460 lung): 65.4 µM
- GI50 (NCI-H522 lung): 4.6 µM
- TGI (NCI-H522 lung): 27.9 µM
- GI50 (NCI/ADR-RES ovarian): 3.35 µM
- TGI (NCI/ADR-RES ovarian): 29.1 µM
- GI50 (OVCAR-3 ovarian): 8.88 µM
- TGI (OVCAR-3 ovarian): > 100 µM
- GI50 (OVCAR-4 ovarian): 6.92 µM
- TGI (OVCAR-4 ovarian): > 100 µM
- GI50 (OVCAR-5 ovarian): 6.62 µM
- TGI (OVCAR-5 ovarian): 39.5 µM
- GI50 (OVCAR-8 ovarian): 4.27 µM
- TGI (OVCAR-8 ovarian): 56.5 µM
- GI50 (PC-3 prostate): 4.51 µM
- TGI (PC-3 prostate): > 100 µM
- GI50 (RPMI-8226 leukemia): 4.31 µM
- TGI (RPMI-8226 leukemia): 25.7 µM
- GI50 (RXF 393 renal): 1.36 µM
- TGI (RXF 393 renal): 4.34 µM
- GI50 (SF-268 CNS): 6.23 µM
- TGI (SF-268 CNS): > 100 µM
- GI50 (SF-295 CNS): 2.66 µM
- TGI (SF-295 CNS): 11.1 µM
- GI50 (SF-539 CNS): 4.33 µM
- TGI (SF-539 CNS): 16.3 µM
- GI50 (SK-MEL-2 melanoma): 10.2 µM
- TGI (SK-MEL-2 melanoma): 22.4 µM
- GI50 (SK-MEL-28 melanoma): 4.44 µM
- TGI (SK-MEL-28 melanoma): 24.3 µM
- GI50 (SK-MEL-5 melanoma): 4.05 µM
- TGI (SK-MEL-5 melanoma): 15.7 µM
- GI50 (SK-OV-3 ovarian): 11 µM
- TGI (SK-OV-3 ovarian): 84.6 µM
- GI50 (SN12C renal): 3.37 µM
- TGI (SN12C renal): 24.9 µM
- GI50 (SNB-19 CNS): 9.02 µM
- TGI (SNB-19 CNS): > 100 µM
- GI50 (SNB-75 CNS): 3.23 µM
- TGI (SNB-75 CNS): 22.3 µM
- GI50 (SR leukemia): 1.61 µM
- TGI (SR leukemia): > 100 µM
- GI50 (SW-620 colon): 7.38 µM
- TGI (SW-620 colon): > 100 µM
- GI50 (TK-10 renal): 21.1 µM
- TGI (TK-10 renal): 62.5 µM
- GI50 (U251 CNS): 5.19 µM
- TGI (U251 CNS): 18.5 µM
- GI50 (UACC-257 melanoma): 5.48 µM
- TGI (UACC-257 melanoma): 23 µM
- GI50 (UACC-62 melanoma): 3.98 µM
- TGI (UACC-62 melanoma): 15.6 µM
- GI50 (UO-31 renal): 3.15 µM
- TGI (UO-31 renal): 55 µM
